Experimental data published in patent US20150239831A1, “INHIBITORS OF CENTRAL NERVOUS SYSTEM VASOACTIVE INHIBITORY PEPTIDE RECEPTOR 2” (The Trustees Of Columbia University In The City Of New York, priority 2012, published 2015).

Tests used:
Type in all cases: cell-based
Set-up in all cases: expressed in transfected cells; host or cells: HEK293 cells transfected with VIPR2 in pCDNA3.1 (as described)
[1] = target: T1, VIPR2 (Homo sapiens, UniProt P41587); assay: Inhibition of VIP-induced β-arrestin recruitment (% Activity Arrestin); details: Batch 1
T1 sequence (P41587 24-438): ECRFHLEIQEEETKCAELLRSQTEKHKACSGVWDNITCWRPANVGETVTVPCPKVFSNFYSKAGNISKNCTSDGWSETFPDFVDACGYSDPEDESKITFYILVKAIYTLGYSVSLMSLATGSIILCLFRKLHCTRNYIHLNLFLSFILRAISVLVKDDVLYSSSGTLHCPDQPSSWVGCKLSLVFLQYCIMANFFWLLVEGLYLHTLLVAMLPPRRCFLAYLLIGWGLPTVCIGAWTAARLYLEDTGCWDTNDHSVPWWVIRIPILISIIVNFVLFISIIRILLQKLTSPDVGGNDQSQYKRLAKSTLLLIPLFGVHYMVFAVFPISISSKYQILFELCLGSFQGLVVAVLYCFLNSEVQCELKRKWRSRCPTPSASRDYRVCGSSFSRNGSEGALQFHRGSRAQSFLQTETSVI
How it was run: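 HEK293 cells stably expressing β-arrestin2–β-gal EA, transiently transfected with ProLink-tagged hVIPR2, plated overnight; inhibitor added for 2 h at 37 °C, 5% CO2. Receptor–arrestin complementation read by chemiluminescence after 5 min–1 h at room temperature; inhibition of VIP-induced recruitment reported as % activity.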

[2] = target: T1, VIPR2; assay: % Activity: inhibition of VIP-induced cAMP elevation and β-arrestin recruitment (Table 2)
How it was run: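 cAMP: HEK293 stably expressing hVIPR2, inhibitor plus VIP 30 min, cAMP by HTRF (665/620 nm ratio ×10,000). β-arrestin: HEK293 with β-arrestin2-β-gal-EA, transiently transfected with VIPR2-ProLink; inhibitor 2 h at 37° C, enzyme complementation read by luminescence.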

[3] = target: T1, VIPR2; assay: Inhibition of VIP-induced cAMP elevation (% Activity cAMP); details: Batch 1
How it was run: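 HEK293 cells stably transfected with human VIPR2 were incubated with inhibitor and VIP for 30 min, then cAMP was detected by HTRF after at least 1 h at room temperature. The 665/620 nm ratio ×10,000 was calculated.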

| Structure (SMILES) | inhibition at 0.5 µM [1] | inhibition at 1 µM [1] | inhibition at 5 µM [1] | % Activity [2] | inhibition at 0.5 µM [3] | inhibition at 1 µM [3] | inhibition at 5 µM [3] |
| --- | --- | --- | --- | --- | --- | --- | --- |
| N#Cc1ccc(S(=O)(=O)NC[C@@H](O)C[C@@H](Cc2ccccc2)C(=O)N[C@H]2c3ccccc3C[C@H]2O)cc1 [C] | 38.5% | 59.5% | 90.4% | 91.75% | 27.3% | 43.6% | 93.1% |
| CC(C)c1ccc(S(=O)(=O)NC[C@@H](O)C[C@@H](Cc2ccccc2)C(=O)N[C@H]2c3ccccc3C[C@H]2O)cc1 [Compound A10] | 31.5% | 63.1% | 87.7% | 92.95% | 36.5% | 44.2% | 98.2% |
| COc1ccc(S(=O)(=O)NC[C@@H](O)C[C@@H](Cc2ccccc2)C(=O)N[C@H]2c3ccccc3C[C@H]2O)cc1 [E] | 54.1% | 76.7% | 89.4% | 91.6% | 33.9% | 45.9% | 93.8% |
| O=C(N[C@H]1c2ccccc2C[C@H]1O)[C@H](Cc1ccccc1)C[C@H](O)CNS(=O)(=O)c1ccc(C(F)(F)F)cc1 [F] | 58.1% | 83% | 92.9% | 95.7% | 42% | 63.1% | 98.5% |
| Cc1ccc(S(=O)(=O)NC[C@@H](O)C[C@@H](Cc2ccccc2)C(=O)N[C@H]2c3ccccc3C[C@H]2O)cc1 [I] | 62.8% | 80.4% | 90% | 94.1% | 42.2% | 63.5% | 98.2% |
| CC(=O)c1ccc(S(=O)(=O)NC[C@@H](O)C[C@@H](Cc2ccccc2)C(=O)N[C@H]2c3ccccc3C[C@H]2O)cc1 [K] | 58.3% | 78% | 88.7% | 92.35% | 38.6% | 61.1% | 96% |
